Experimental data from patent publication US20170202219A1, “CLOQUINTOCET SALTS FOR SAFENING PYROXSULAM COMPOSITIONS” (Dow AgroSciences LLC, priority 2016, published 2017).
Read-outs that look alike come from different tables or passages of the source. One block for each molecule: values may come before it.

Legend:
[1] = test system: wild oats (Avena fatua L., AVEFA); assay: Greenhouse evaluation, control of wild oats; assay type: in vivo; conditions: pyroxsulam:cloquintocet (AE) 1:2.1, postemergence spray
Source text: A peat based potting soil, Metro-mix 360, (produced by Sun Gro Horticulture Canada CM Ltd) was used as the soil media for this test. Metro-mix 360 is a growing medium consisting of Canadian sphagnum peat moss, coarse perlite, bark ash, starter nutrient charge (with gypsum) and slow release nitrogen and dolomitic limestone. Several seeds of each crop or weed species were planted in 10 cm square pots and top watered twice daily. Plant material was propagated in greenhouse zone E2 at temperatures ranging from 18 to 20° C. and 50 to 60% relative humidity. Natural light was supplemented with 1000-watt metal halide overhead lamps with an average illumination of 500 microeinsteins per square meter per second (μE m^−2 s^−1) photosynthetic active radiation (PAR). Day length was 16 hours. Plant material was top-watered prior to treatment and sub-irrigated after treatment.
Herbicides were applied with a track sprayer manufactured by Allen Machine Works and located in building 306, room E1-483, at the Dow AgroSciences Indianapolis, Ind. Global Headquarters site (9330 Zionsville Road, Indianapolis, Ind., USA). The track sprayer was calibrated to deliver 50 L/ha at 40 psi (262 kPa) pressure utilizing an 8001E even flat fan nozzle tip with a speed of 1.6 mph (2.6 km/h). The nozzle height was 46 cm above the plant canopy. Appropriate amounts of formulated product were added to vials as calculated by the software package ARM8 (Gylling Data Management Inc.). The vials contained a pH 7 phosphate buffer (Fischer Scientific) and the herbicide aliquots were diluted to a total volume of 60 ml. The growth stage of the crop and weed species at application was 2 to 4 leaf (Table 11). The application rates were 0, 17.8 and 37.6 g ai/ha of pyroxsulam for crop tolerance comparisons and 0, 2.35 and 4.7 g ai/ha of pyroxsulam for weed control comparisons. Cloquintocet was applied at a 1:2.1 ratio of pyroxsulam (g ai):cloquintocet (g ae) in all treatments containing the safener. Treatments were replicated 4 times. Plants were returned to the greenhouse after treatment and sub-watered throughout the duration of the experiment. Plant material was fertilized twice weekly with Hoagland's fertilizer solution that is readily available in the greenhouses. Percent visual injury assessments were made on a scale of 0 to 100% as compared to the untreated control plants (where 0 is equal to no injury and 100 is equal to complete death of the plant.
Visual determination of the control of wild oats (Avena fatua L., AVEFA) treated with pyroxsulam alone and with several forms of cloquintocet was conducted. All forms of cloquintocet were applied at a 1:2.1 weight ratio of pyroxsulam:cloquintocet (AE).

[2] = Water solubility of cloquintocet salts at 20° C.
cell membranes [3] = test system: cell membranes
[4] = test system: durum wheat (Triticum durum L. TRZDU); conditions: pyroxsulam:cloquintocet (AE) 1:2.1, postemergence spray
[5] = test system: spring wheat (Triticum aestivum L., TRZAS); conditions: pyroxsulam:cloquintocet (AE) 1:2.1, postemergence spray
cell membranes [6] = test system: cell membranes; remark: listed apart in the source
cell membranes [7] = assay: Neutral Red Release (NRR) assay, eye irritation potential of aqueous CQC salt solutions; conditions: for NRR50, mg ae/mL: aqueous solution of the CQC salt diluted in PBS, NRR50 corrected to CQC acid equivalent concentration
[8] = solubility solution, water, 20° C.

Calculated water solubility wt % ai ([2]; pH 7 buffer solution, 20° C.): 1.4 wt % ai | Density ([2]; pH 7 buffer solution, 20° C.): 1.0 g/mL | Neat pH ([2]; pH 7 buffer solution, 20° C.): 5.6
Molecule: O=C(O)COc1ccc(Cl)c2cccnc12 [Acid, Cloquintocet]
AVEFA Control 21 DAA (% Control) ([1]; pyroxsulam 2.35 g ai/ha): 96 % Control | AVEFA Control 21 DAA (% Control) ([1]; pyroxsulam 4.7 g ai/ha): 99 % Control | Water Solubility wt % ae ([2]; pH 7 buffer solution, 20° C.): 1.4 wt % ae | Water Solubility wt % ae ([2]; pH 7 buffer solution, 20° C., listed as CQC acid): about 1.4 wt % ae | NRR50, mg ae/mL (cell membranes [3]): 9 mg ae/mL

Molecule: OCCNCCO [Diethanolamine]
AVEFA Control 21 DAA (% Control) ([1]; pyroxsulam 2.35 g ai/ha): 88 % Control | AVEFA Control 21 DAA (% Control) ([1]; pyroxsulam 4.7 g ai/ha): 94 % Control

Molecule: CCNCC [Diethylamine]
AVEFA Control 21 DAA (% Control) ([1]; pyroxsulam 2.35 g ai/ha): 88 % Control | AVEFA Control 21 DAA (% Control) ([1]; pyroxsulam 4.7 g ai/ha): 99 % Control | TRZDU Injury 22 DAA (% Injury) ([4]; pyroxsulam 18.8 g ai/ha): 12 % Injury | TRZDU Injury 22 DAA (% Injury) ([4]; pyroxsulam 37.6 g ai/ha): 18 % Injury | TRZAS Injury 22 DAA (% Injury) ([5]; pyroxsulam 18.8 g ai/ha): 5 % Injury | TRZAS Injury 22 DAA (% Injury) ([5]; pyroxsulam 37.6 g ai/ha): 15 % Injury

Density [2, 8]: 1.1 g/mL | Neat pH [2, 8]: 6.4
Molecule: CC(O)CNCC(C)O (centres unmarked) [Diisopropanolamine]

Molecule: CC(C)NC(C)C [Diisopropylamine]
Density [2]: 1.1 g/mL | Neat pH [2]: 5.9

Molecule: CNC [Dimethylamine]
AVEFA Control 21 DAA (% Control) ([1]; pyroxsulam 2.35 g ai/ha): 88 % Control | AVEFA Control 21 DAA (% Control) ([1]; pyroxsulam 4.7 g ai/ha): 90 % Control | Density [2]: 1.2 g/mL | Neat pH [2]: 6 | TRZDU Injury 22 DAA (% Injury) ([4]; pyroxsulam 18.8 g ai/ha): 9 % Injury | TRZDU Injury 22 DAA (% Injury) ([4]; pyroxsulam 37.6 g ai/ha): 15 % Injury | TRZAS Injury 22 DAA (% Injury) ([5]; pyroxsulam 18.8 g ai/ha): 11 % Injury | TRZAS Injury 22 DAA (% Injury) ([5]; pyroxsulam 37.6 g ai/ha): 11 % Injury

Molecule: CC(O)CN (centres unmarked) [Isopropanolamine]
AVEFA Control 21 DAA (% Control) ([1]; pyroxsulam 2.35 g ai/ha): 80 % Control | AVEFA Control 21 DAA (% Control) ([1]; pyroxsulam 4.7 g ai/ha): 90 % Control | Density [2]: 1.1 g/mL | Neat pH [2, 8]: 7.4 | NRR50 (% v/v) (cell membranes [6]): 29 % v/v | NRR50, mg ae/mL (cell membranes [6]): 56 mg ae/mL | TRZDU Injury 22 DAA (% Injury) ([4]; pyroxsulam 18.8 g ai/ha): 9 % Injury | TRZDU Injury 22 DAA (% Injury) ([4]; pyroxsulam 37.6 g ai/ha): 12 % Injury | TRZAS Injury 22 DAA (% Injury) ([5]; pyroxsulam 18.8 g ai/ha): 2 % Injury | TRZAS Injury 22 DAA (% Injury) ([5]; pyroxsulam 37.6 g ai/ha): 20 % Injury

Molecule: CC(C)N [Isopropylamine]
AVEFA Control 21 DAA (% Control) ([1]; pyroxsulam 2.35 g ai/ha): 90 % Control | AVEFA Control 21 DAA (% Control) ([1]; pyroxsulam 4.7 g ai/ha): 99 % Control | Density [2]: 1.1 g/mL | Neat pH [2]: 5.7

Density [2, 8]: 1.1 g/mL | Neat pH [2, 8]: 6.3
Molecule: NCCO [Monoethanolamine]

Molecule: CN(C)CCO [N,N-dimethylethanolamine]
Neat pH [2, 8]: 5.7

Molecule: COc1cc(OC)n2nc(NS(=O)(=O)c3c(C(F)(F)F)ccnc3OC)nc2n1 [Pyroxsulam, N-(5,7-dimethoxy [1,2,4]triazolo [1,5-a]pyrimidin-2-yl)-2-methoxy-4-(trifluoromethyl)pyridine-3-sulfonamide]
AVEFA Control 21 DAA (% Control) ([1]; pyroxsulam 2.35 g ai/ha): 86 % Control | AVEFA Control 21 DAA (% Control) ([1]; pyroxsulam 4.7 g ai/ha): 98 % Control

Molecule: CCCCCCCCCCCCOS(=O)(=O)[O-].[Na+] [SDS, Sodium dodecyl sulfate]
NRR assay result of positive control (cell membranes [7]; 5 mg/ml, two independent assay replicates): positive

Molecule: CCCCCC(C)OC(=O)COc1ccc(Cl)c2cccnc12 (centres unmarked) [mexyl, cloquintocet-mexyl, reference compound]
AVEFA Control 21 DAA (% Control) ([1]; pyroxsulam 2.35 g ai/ha): 71 % Control | AVEFA Control 21 DAA (% Control) ([1]; pyroxsulam 4.7 g ai/ha): 84 % Control

Molecule: Ammonium [reference compound]
Density [2, 8]: 1.0 g/mL | Neat pH [2, 8]: 5.7 | NRR50, mg ae/mL (cell membranes [7]): 3 mg ae/mL

Molecule: cloquintocet choline salt
AVEFA Control 21 DAA (% Control) ([1]; pyroxsulam 2.35 g ai/ha): 94 % Control | AVEFA Control 21 DAA (% Control) ([1]; pyroxsulam 4.7 g ai/ha): 99 % Control | Density [2]: 1.1 g/mL | Neat pH [2]: 6.8 | NRR50, mg ae/mL (cell membranes [7]): 213 mg ae/mL | TRZDU Injury 22 DAA (% Injury) ([4]; pyroxsulam 18.8 g ai/ha): 9 % Injury | TRZDU Injury 22 DAA (% Injury) ([4]; pyroxsulam 37.6 g ai/ha): 12 % Injury | TRZAS Injury 22 DAA (% Injury) ([5]; pyroxsulam 18.8 g ai/ha): 6 % Injury | TRZAS Injury 22 DAA (% Injury) ([5]; pyroxsulam 37.6 g ai/ha): 21 % Injury
